In patent US7538233B2, “Coumarins as iNOS inhibitors” (Aventis Pharmaceuticals Inc., priority 2003, dated 2009):

Key:
Type in all cases: biochemical
Human NOS-2 = Human NOS-2 (Homo sapiens, UniProt P35228); experiment: Human NOS-2 assay ([3H]-arginine to [3H]-citrulline conversion); settings: 60 min at 37° C., 2.5 μM L-[3H]arginine; * mean of 3, ** mean of 2 determinations; read-out: Human iNOS, IC50
Procedure: (§1) Experimental conditions (protein concentration, incubation time) required for measuring NOS activity (37° C.) in screening assays are controlled for each batch of enzyme prepared or commercially obtained. NOS enzymatic assays are based on the conversion of [^3H]-arginine into [^3H]-citrulline originally described by Bredt and Snyder (1990, Proc. Natl. Acad. Sci. USA 87, 682-685).
(§2) The incubations are terminated by using the Beckman Multimek to transfer 60 ul of the assay solution into Millipore MAHV N45 plates, packed with 80 ul/well 500 mg of AG® 50W-X8 (counterion Na^+) cation exchange resin and pre-washed with 100 ul of HEPES buffer (100 mM, pH 5.5) containing 10 mM EGTA. After filtering under vacuum into opaque scintillation plates, approximately 220 ul of Packard Microscint-40 is added to each well using a Titertek multidrop. The plates are counted on a Packard TopCount to quantify L-[^3H]citrulline by liquid scintillation counting.
Human iNOS is used as 1:30 diluted preparation, is usually incubated for 60 min at 37° C. in the presence of 2.5 μM L-[^3H]arginine (0.06 uCi tracer/well).
(§3) For all NOS assays in vitro, the inhibitory activities of screened compounds (usually tested at 10^−9-10^−4 M) are represented by their IC50 values determined by non-linear regression analysis with Activity Base Software (Data management system from IDBS Ltd).

Rat NOS-1 (nNOS) = molecular target: T1, Rat NOS-1 (nNOS) (Rattus norvegicus, UniProt P29476); experiment: Rat NOS-1 (nNOS) assay ([3H]-arginine to [3H]-citrulline conversion); settings: recombinant rat nNOS, 20 min at 37° C., 2 μM L-[3H]arginine; * mean of 3 determinations
T1 construct: purchased Cayman Chemical 60870; host or cells: Baculovirus / Sf9 cells
T1 sequence (P29476 whole entry): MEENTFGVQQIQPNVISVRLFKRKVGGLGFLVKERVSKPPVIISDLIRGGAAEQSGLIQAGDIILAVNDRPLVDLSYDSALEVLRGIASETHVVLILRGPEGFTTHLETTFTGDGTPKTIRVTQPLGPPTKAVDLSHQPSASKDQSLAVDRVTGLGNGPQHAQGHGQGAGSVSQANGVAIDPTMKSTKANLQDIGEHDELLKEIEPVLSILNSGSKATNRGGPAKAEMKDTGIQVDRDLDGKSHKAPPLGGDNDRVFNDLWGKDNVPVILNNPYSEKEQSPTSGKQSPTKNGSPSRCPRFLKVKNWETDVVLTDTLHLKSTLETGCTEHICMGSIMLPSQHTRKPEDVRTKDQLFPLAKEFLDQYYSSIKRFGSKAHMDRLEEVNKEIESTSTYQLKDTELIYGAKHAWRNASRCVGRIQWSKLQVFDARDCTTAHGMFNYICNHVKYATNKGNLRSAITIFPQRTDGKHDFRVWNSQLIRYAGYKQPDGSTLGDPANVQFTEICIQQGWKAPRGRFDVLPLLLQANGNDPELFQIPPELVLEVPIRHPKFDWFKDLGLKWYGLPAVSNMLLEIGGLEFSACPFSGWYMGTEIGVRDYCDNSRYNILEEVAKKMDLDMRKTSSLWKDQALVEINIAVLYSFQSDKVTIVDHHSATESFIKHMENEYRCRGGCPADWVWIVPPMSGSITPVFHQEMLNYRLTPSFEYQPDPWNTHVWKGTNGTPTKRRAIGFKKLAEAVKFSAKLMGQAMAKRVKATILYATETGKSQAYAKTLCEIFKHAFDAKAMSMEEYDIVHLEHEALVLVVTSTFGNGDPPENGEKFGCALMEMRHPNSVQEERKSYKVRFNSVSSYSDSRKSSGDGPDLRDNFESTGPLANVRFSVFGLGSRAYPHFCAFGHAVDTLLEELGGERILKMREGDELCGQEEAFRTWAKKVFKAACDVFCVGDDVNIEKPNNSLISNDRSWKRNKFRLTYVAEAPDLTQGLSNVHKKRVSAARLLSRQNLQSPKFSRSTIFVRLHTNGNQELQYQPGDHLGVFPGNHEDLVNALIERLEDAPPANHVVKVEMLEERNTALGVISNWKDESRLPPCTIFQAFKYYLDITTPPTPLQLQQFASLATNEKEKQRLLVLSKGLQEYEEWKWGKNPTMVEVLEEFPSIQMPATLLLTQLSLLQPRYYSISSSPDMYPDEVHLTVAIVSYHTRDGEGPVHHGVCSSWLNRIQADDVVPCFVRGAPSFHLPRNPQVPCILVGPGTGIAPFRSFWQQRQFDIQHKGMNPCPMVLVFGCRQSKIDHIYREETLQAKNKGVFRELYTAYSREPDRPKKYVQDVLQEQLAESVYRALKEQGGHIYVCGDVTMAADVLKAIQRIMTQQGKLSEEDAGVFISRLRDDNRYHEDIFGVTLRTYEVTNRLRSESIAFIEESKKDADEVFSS
Procedure: To avoid thawing/freezing cycles, this enzymatic preparation is divided into small fractions (25-100 μl) stored at −80° C. until use.
as §1
(§4) 0.012 Units recombinant rat nNOS is incubated in Costar polystyrene 96-well microplates 20 min at 37° C. with 2 μM L-[^3H]arginine, 1 mM NADPH, 15 μM 6R-tetrahydrobiopterin, 1 μM FAD, and 10 μg/ml calmodulin prepared in HEPES buffer (50 mM, pH 7.4) containing 0.1 mM DL-dithiothreitol, 1 mM EDTA and 1.25 mM CaCl2 (final volume: 90 μl).
(§5) 0.06 μCi/well L-[^3H]arginine (Amersham; ˜55.0 Ci/mmol, 1 mCi/ml) is used.
as §2
(§6) The recovery of L-[^3H]citrulline can be estimated by using L-[ureido-^14C]-citrulline (NEN; 58.8 mCi/mmol) as an external standard (4.05 nCi/0.09 ml). Specific NOS I-like activity corresponds to the L-NNA-sensitive formation of L-citrulline per minute and milligram of protein (pmol/min/unit of protein).
as §3

Murine NOS-2 (iNOS) = molecular target: T2, Murine NOS-2 (iNOS) (Mus musculus, UniProt P29477); experiment: Murine NOS-2 (iNOS) assay ([3H]-arginine to [3H]-citrulline conversion); settings: recombinant murine NOS-2, 20 min at 37° C., 10 uM L-[3H]arginine; ** mean of 2 determinations
T2 construct: purchased Cayman Chemical 60864; host or cells: E. coli
T2 sequence (P29477 whole entry): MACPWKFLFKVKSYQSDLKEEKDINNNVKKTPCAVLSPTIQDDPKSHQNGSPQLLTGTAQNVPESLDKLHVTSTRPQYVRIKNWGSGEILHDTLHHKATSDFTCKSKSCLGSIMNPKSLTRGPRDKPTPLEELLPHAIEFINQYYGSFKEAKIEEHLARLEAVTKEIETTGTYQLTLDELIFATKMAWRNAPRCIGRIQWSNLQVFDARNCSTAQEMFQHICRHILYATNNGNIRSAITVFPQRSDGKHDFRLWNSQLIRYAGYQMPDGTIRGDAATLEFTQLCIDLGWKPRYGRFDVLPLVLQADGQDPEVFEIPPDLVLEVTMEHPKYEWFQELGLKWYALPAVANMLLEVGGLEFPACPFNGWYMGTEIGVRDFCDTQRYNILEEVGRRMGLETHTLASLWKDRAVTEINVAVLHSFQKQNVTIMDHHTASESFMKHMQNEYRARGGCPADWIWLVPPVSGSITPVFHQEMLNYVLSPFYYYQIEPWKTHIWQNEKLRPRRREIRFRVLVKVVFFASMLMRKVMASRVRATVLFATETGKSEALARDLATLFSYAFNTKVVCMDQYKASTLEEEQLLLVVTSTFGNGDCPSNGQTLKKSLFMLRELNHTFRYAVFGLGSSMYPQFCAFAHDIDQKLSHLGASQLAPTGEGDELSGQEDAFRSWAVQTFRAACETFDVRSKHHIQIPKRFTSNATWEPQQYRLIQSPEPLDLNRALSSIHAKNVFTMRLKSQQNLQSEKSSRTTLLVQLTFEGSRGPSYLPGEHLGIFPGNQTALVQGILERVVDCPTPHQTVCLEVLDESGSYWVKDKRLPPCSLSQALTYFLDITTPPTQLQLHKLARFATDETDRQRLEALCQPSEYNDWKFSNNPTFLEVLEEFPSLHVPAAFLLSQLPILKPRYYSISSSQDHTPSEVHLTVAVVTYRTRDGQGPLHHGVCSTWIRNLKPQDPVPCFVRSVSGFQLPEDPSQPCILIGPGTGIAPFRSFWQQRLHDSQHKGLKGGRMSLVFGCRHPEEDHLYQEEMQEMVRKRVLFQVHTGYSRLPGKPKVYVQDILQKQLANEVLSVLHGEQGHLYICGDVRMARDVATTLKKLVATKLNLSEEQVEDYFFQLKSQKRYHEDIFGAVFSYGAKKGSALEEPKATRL
Procedure: A recombinant murine NOS-2 (inducible) preparation is purchased from Cayman Chemical (Catalog N^o 60864). This preparation corresponds to murine NOS-2 expressed in E. Coli, and represents a 100,000×supernatant. To avoid thawing/freezing cycles, this enzymatic preparation is divided into small fractions (25-100 μl) stored at −80° C. until use.
as §1, §5, §2
The recovery of L-[^3H]citrulline can be estimated by using L-[ureido-^14C]-citrulline (NEN; 58.8 mCi/mmol) as an external standard (4.05 nCi/0.09 ml).
as §3

Bovine NOS-3 (eNOS) = molecular target: T3, Bovine NOS-3 (eNOS) (Bos taurus, UniProt P29473); experiment: Bovine NOS-3 (eNOS) assay ([3H]-arginine to [3H]-citrulline conversion); settings: recombinant bovine NOS-3, 120 min, 10 μM L-[3H]arginine; ** mean of 2 determinations
T3 construct: purchased Cayman Chemical 60880; host or cells: Baculovirus / Sf9 cells
T3 sequence (P29473 2-1205): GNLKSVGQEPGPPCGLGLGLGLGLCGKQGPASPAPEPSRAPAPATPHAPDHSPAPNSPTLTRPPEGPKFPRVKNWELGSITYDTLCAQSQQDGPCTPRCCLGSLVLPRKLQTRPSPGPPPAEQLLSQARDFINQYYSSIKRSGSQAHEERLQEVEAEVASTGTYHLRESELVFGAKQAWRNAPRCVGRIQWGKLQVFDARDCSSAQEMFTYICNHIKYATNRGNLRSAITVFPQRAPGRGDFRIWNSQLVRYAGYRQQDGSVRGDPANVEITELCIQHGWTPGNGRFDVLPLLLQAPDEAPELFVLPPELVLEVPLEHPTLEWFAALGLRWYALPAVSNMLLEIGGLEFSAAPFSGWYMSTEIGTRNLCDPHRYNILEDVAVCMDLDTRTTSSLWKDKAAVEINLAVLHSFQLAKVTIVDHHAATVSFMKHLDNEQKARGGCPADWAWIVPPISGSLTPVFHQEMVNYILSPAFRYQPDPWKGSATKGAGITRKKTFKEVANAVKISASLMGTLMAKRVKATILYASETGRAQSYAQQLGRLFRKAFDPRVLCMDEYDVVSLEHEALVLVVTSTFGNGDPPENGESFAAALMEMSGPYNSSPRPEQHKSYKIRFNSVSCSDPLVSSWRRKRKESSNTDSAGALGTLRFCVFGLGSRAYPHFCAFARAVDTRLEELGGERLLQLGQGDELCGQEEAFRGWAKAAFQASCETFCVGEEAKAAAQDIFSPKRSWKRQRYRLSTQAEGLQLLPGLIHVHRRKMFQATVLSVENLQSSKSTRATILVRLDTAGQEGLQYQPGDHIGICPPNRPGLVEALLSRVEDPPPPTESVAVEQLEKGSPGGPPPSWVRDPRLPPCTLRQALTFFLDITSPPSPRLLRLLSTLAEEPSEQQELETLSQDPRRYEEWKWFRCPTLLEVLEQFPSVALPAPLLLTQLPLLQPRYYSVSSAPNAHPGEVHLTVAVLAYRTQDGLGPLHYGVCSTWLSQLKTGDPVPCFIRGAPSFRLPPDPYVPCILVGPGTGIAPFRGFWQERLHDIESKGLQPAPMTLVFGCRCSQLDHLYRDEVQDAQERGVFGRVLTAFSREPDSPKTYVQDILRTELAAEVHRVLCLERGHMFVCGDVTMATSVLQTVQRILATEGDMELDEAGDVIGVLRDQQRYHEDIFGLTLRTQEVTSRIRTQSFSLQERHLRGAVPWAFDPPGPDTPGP
Procedure: Experimental conditions (protein concentration, incubation time) required for measuring NOS activity (37° C.) in screening assays are controlled for each batch of enzyme prepared or commercially obtained.
as §4, §5, §2, §6
Aliquots of commercial enzyme fraction (quantity used variable from one batch to another, but normally 0.012 Units/90 ul reaction volume) are usually incubated for 120 min in the presence of 10 μM L-[^3H]arginine (0.15 uCi/well).
as §3

Human NOS-2, sequence (P35228 whole entry): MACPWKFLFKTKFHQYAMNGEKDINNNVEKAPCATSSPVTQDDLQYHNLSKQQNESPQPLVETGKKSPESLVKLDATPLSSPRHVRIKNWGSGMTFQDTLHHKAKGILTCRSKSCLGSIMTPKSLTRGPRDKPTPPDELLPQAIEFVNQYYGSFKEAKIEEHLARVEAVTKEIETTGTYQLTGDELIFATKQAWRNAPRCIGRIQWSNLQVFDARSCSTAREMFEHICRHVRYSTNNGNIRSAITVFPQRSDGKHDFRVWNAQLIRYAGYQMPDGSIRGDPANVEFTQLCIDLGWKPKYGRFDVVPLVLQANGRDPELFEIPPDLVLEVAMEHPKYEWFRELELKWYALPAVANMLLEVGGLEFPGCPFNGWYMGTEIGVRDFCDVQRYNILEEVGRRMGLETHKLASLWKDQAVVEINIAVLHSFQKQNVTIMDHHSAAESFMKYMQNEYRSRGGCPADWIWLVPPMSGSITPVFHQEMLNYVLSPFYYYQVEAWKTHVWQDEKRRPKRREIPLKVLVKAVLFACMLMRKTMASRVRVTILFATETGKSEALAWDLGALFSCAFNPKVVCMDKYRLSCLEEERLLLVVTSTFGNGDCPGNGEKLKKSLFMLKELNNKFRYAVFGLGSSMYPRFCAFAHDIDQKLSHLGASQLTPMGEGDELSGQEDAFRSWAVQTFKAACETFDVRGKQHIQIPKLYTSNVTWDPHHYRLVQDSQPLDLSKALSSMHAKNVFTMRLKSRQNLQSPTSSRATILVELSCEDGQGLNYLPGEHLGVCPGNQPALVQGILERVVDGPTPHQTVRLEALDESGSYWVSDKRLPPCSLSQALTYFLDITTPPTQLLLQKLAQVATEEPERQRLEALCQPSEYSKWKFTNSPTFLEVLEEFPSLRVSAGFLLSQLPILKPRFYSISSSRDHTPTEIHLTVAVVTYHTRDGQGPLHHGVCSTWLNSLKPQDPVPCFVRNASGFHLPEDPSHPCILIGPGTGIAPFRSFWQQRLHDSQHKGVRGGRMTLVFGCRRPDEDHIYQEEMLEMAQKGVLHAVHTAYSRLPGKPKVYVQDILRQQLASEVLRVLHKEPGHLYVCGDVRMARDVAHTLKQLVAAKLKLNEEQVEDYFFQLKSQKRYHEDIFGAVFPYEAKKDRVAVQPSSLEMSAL

With `NCCCOc1cc(=O)oc2ccc(Cl)cc12` [Example 1, 6-Chloro-4-(3-aminopropoxy)-1-benzopyran-2-one] the IC50 (Human NOS-2) was 0.094 µM, the IC50 (Rat NOS-1 (nNOS)) was 0.56 µM and the IC50 (Murine NOS-2 (iNOS)) was 0.06 µM. For the same compound, the IC50 (Bovine NOS-3 (eNOS)) was greater than 10 µM.
`CN(C)CCCOc1cc(=O)oc2ccccc12` [Example 2, 4-(3-Dimethylamino-propoxy)-1-benzopyran-2-one] showed an IC50 (Human NOS-2) of 4 µM, an IC50 (Rat NOS-1 (nNOS)) greater than 10 µM and an IC50 (Murine NOS-2 (iNOS)) greater than 10 µM. It also gave an IC50 (Bovine NOS-3 (eNOS)) greater than 10 µM.
In the case of `CNCCCOc1cc(=O)oc2ccc(Cl)cc12` [Example 3, 6-Chloro-4-(3-methylamino-propoxy)-1-benzopyran-2-one], the IC50 (Human NOS-2) is reported as 0.11 µM, the IC50 (Rat NOS-1 (nNOS)) is reported as 0.53 µM and the IC50 (Murine NOS-2 (iNOS)) is reported as 0.25 µM. For the same compound, the IC50 (Bovine NOS-3 (eNOS)) was greater than 10 µM.
With `NCCCOc1cc(=O)oc2ccc(Br)cc12` [Example 11, 4-(3-Amino-propoxy)-6-bromo-1-benzopyran-2-one] the IC50 (Human NOS-2) was 0.1 µM, the IC50 (Rat NOS-1 (nNOS)) was 0.36 µM and the IC50 (Murine NOS-2 (iNOS)) was 0.14 µM. The IC50 (Bovine NOS-3 (eNOS)) was greater than 10 µM.
For `NCCCOc1cc(=O)oc2ccc(F)cc12` [Example 12, 4-(3-Amino-propoxy)-6-fluoro-1-benzopyran-2-one], the IC50 (Human NOS-2) was 1.1 µM, the IC50 (Rat NOS-1 (nNOS)) was 1.6 µM and the IC50 (Murine NOS-2 (iNOS)) was 0.44 µM. The IC50 (Bovine NOS-3 (eNOS)) was greater than 10 µM.
`Cc1ccc2oc(=O)cc(OCCCN)c2c1` [Example 14, 4-(3-Amino-propoxy)-6-methyl-1-benzopyran-2-one] gave an IC50 (Human NOS-2) of 0.3 µM, an IC50 (Rat NOS-1 (nNOS)) of 0.65 µM and an IC50 (Murine NOS-2 (iNOS)) of 0.3 µM. The IC50 (Bovine NOS-3 (eNOS)) was greater than 10 µM.
`NCCCOc1cc(=O)oc2ccccc12` [Example 19, 4-(3-Amino-propoxy)-1-benzopyran-2-one] was tested, and the IC50 (Human NOS-2) was 7.6 µM, the IC50 (Rat NOS-1 (nNOS)) was 9.1 µM and the IC50 (Murine NOS-2 (iNOS)) was 7.4 µM. It also gave an IC50 (Bovine NOS-3 (eNOS)) greater than 10 µM.
`CN(C)CCCOc1cc(=O)oc2ccc(Cl)cc12` [Example 22, 6-Chloro-4-(3-dimethylamino-propoxy)-1-benzopyran-2-one] gave an IC50 (Human NOS-2) of 4.1 µM, an IC50 (Rat NOS-1 (nNOS)) of 8 µM and an IC50 (Murine NOS-2 (iNOS)) of 1.2 µM. It also gave an IC50 (Bovine NOS-3 (eNOS)) greater than 10 µM.
`Cc1ccc2oc(=O)cc(OCCCN(C)C)c2c1` [Example 23, 4-(3-Dimethylamino-propoxy)-6-methyl-1-benzopyran-2-one] showed an IC50 (Human NOS-2) of 4.7 µM, an IC50 (Rat NOS-1 (nNOS)) greater than 10 µM and an IC50 (Murine NOS-2 (iNOS)) of 3 µM. It also gave an IC50 (Bovine NOS-3 (eNOS)) greater than 10 µM.
`N=C(N)NCCCOc1cc(=O)oc2ccc(Cl)cc12` [Example 28, N-[3-(6-Chloro-2-oxo-2H-1-benzopyran-4-yloxy)-propyl]guanidine] was tested, and the IC50 (Human NOS-2) was 0.51 µM, the IC50 (Rat NOS-1 (nNOS)) was 0.5 µM and the IC50 (Murine NOS-2 (iNOS)) was 0.39 µM. For the same compound, the IC50 (Bovine NOS-3 (eNOS)) was greater than 10 µM.
For `NCCCCOc1cc(=O)oc2ccc(Cl)cc12` [Example 31, 4-(4-Amino-butoxy)-6-chloro-1-benzopyran-2-one], the IC50 (Human NOS-2) was 2 µM, the IC50 (Rat NOS-1 (nNOS)) was greater than 10 µM and the IC50 (Murine NOS-2 (iNOS)) was 1 µM. For the same compound, the IC50 (Bovine NOS-3 (eNOS)) was greater than 10 µM.
Compound `NCCCCCOc1cc(=O)oc2ccc(Cl)cc12` [Example 32, 4-(5-Amino-pentyloxy)-6-chloro-1-benzopyran-2-one] has an IC50 (Human NOS-2) of 1.3 µM.
`O=c1cc(OCC2CCCNC2)c2cc(Cl)ccc2o1` (stereo not drawn) [Example 33, 6-Chloro-4-(piperidin-3-ylmethoxy)-1-benzopyran-2-one] gave an IC50 (Murine NOS-2 (iNOS)) of 1.5 µM.
`O=c1cc(OCCC2CCCCN2)c2cc(Cl)ccc2o1` (stereo not drawn) [Example 34, 6-Chloro-4-(2-piperidin-2-yl-ethoxy)-1-benzopyran-2-one] was tested, and the IC50 (Human NOS-2) was 2 µM, the IC50 (Rat NOS-1 (nNOS)) was 1 µM and the IC50 (Murine NOS-2 (iNOS)) was 4.2 µM. It also gave an IC50 (Bovine NOS-3 (eNOS)) greater than 10 µM.
In the case of `NCCCCc1cc(=O)oc2ccc(Cl)cc12` [Example 57, 4-(4-Aminobutyl)6-chloro-1-benzopyran-2-one], the IC50 (Human NOS-2) is reported as 3.6 µM.
